Experimental findings from patent US8377974B2 (Millennium Pharmaceuticals, Inc., priority 2004, dated 2013) are described below.

Some results are limits rather than exact numbers.

The target of this test is T1, human plasma protein factor Xa (Homo sapiens, UniProt P00742).
T1 construct: measure proteolytic activity of the enzyme (factor Xa); purchased Haematologic Technologies (Essex Junction, Vt.); host or cells: human plasma
T1 sequence (P00742 235-488 limits assumed): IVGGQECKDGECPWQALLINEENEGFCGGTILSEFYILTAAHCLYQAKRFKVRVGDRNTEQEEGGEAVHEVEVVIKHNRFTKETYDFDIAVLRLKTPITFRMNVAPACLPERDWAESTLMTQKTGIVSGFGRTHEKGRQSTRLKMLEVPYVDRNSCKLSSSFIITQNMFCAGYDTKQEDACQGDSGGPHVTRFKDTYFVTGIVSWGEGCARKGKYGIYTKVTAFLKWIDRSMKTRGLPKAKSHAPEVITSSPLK
T1 sequence (P00742 41-179 partner limits assumed): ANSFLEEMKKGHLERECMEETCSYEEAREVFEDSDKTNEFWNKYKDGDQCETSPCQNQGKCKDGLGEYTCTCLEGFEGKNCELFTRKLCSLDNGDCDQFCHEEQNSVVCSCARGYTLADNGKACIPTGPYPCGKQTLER
The test can be described thus: Factor Xa IC50 determination: cleavage of paranitroanilide substrate S-2765 in 96-well plates. It counts as biochemical. The conditions noted are these: fXa 1 nM, S-2765 100 μM, Tris buffered saline pH 7.4, room temperature. From the text: This example illustrates methods for evaluating the compounds of the invention, along with results obtained for such assays. The in vitro and in vivo Factor Xa isoform activities of the inventive compounds can be determined by various procedures known in the art, such as a test for their ability to inhibit the activity of the Factor Xa isoform. […] The IC50 value is the concentration (in nM) of the compound required to provide 50% inhibition of Factor Xa isoform.
An in vitro assay for detecting and measuring inhibition activity against Factor Xa is as follows:
The substrate S-2765 (Z-D-Arg-Gly-Arg-pNA.HCl) was obtained from Diapharma (West Chester, Ohio).
The human plasma protein factor Xa was purchased from Haematologic Technologies (Essex Junction, Vt.).
All assays, which are performed in 96-well microtiter plates, measure proteolytic activity of the enzyme (factor Xa) by following cleavage of paranitroanilide substrate. The assay buffer used for proteolytic assays was Tris buffered saline (20 mM Tris, 150 mM NaCl, 5 mM CaCl2, 0.1% Bovine serum albumin (BSA), 5% Dimethly Sulfoxide (DMSO) pH 7.4). In a 96-well microtiter plate, inhibitor was serially diluted to give a range of concentrations from 0.01 nM to 10 μM (final). Duplicate sets of wells were assayed and control wells without inhibitor were included. Enzyme was added to each well, (fXa concentration=1 nM), the plate was shaken for 5 seconds and then incubated for 5 minutes at room temperature. S2765 was added (100 μM final) and the plate was shaken for 5 seconds (final liquid volume in each well was 200 μl). The degree of substrate hydrolysis was measured at 405 nm on a Thermomax plate reader (Molecular Devices, Sunnyvale, Calif.) for 2 minutes. The initial velocities (mOD/min), for each range of inhibitor concentrations, were fitted to a four parameter equation using Softmax data analysis software. The parameter C, derived from the resulting curve-fit, corresponded to the concentration for half maximal inhibition (IC50).
A word on the IC50: it is the concentration needed to halve the response being measured. The low end stands for inhibition by little substance, the high end for a need for much substance. For `CC(O)CNC(=O)c1ccc(C2=NOC(CNC(=O)c3ccc(Cl)s3)C2)cc1` (stereo not drawn) [Example 399, N-((3-(4-((2-Hydroxypropyl)carbamoyl)phenyl)-4,5-dihydroisoxazol-5-yl)methyl)-5-chlorothiophene-2-carboxamide], the IC50 is ≥ 500 nM.

Consider `CN(C)C(=N)c1ccc(-c2csc(CNC(=O)c3ccc(Cl)s3)n2)cc1` [Example 360, N-((4-(4-(N,N-Dimethylcarbamimidoyl)phenyl)thiazol-2-yl)methyl)-5-chlorothiophene-2-carboxamide], for which the IC50 is ≥ 500 nM.

As for `CN(C)C(=N)c1ccc(C2=NOC(CNC(=O)c3ccc(Cl)s3)C2)cc1` (stereo not drawn) [Example 8, 5-Chloro-thiophene-2-carboxylic acid {3-[4-(N,N-dimethyl-carbamimidoyl)-phenyl]-4,5-dihydro-isoxazol-5-ylmethyl}-amide], the IC50 is ≤ 100 nM.

Turning to `N=C(c1ccc(-c2cc(CNC(=O)c3ccc(Cl)s3)on2)c(F)c1)N1CCCCC1` [Example 72, 5-Chloro-thiophene-2-carboxylic acid {3-[2-fluoro-4-(imino-piperidin-1-yl-methyl)-phenyl]-isoxazol-5-ylmethyl}-amide], the IC50 is ≤ 100 nM.

On to `CN1CCN=C1c1ccc(-n2cc(CNC(=O)c3ccc(Cl)s3)nn2)cc1` [Example 312, 5-Chloro-N-((1-(4-(1-methyl-4,5-dihydro-1H-imidazol-2-yl)phenyl)-1H-1,2,3-triazol-4-yl)methyl)thiophene-2-carboxamide], for which the IC50 is ≤ 100 nM.

For the molecule `N=C(c1ccc(-c2coc(CNC(=O)c3ccc(Cl)s3)n2)cc1)N1CCCC1` [Example 359, 5-Chloro-N-((4-(4-(imino(pyrrolidin-1-yl)methyl)phenyl)oxazol-2-yl)methyl)thiophene-2-carboxamide], the IC50 was in the range of 100 to 500 nM.

For `O=C(NCC1CC(c2ccc(Nc3ccncc3C(F)(F)F)cc2)=NO1)c1ccc(Cl)s1` (stereo not drawn) [Example 403, 5-Chloro-N-((3-(4-(3-(trifluoromethyl)pyridin-4-ylamino)phenyl)-4,5-dihydroisoxazol-5-yl)methyl)thiophene-2-carboxamide], the half-maximal inhibitory concentration (IC50) was ≤ 100 nM.

`CN(Cc1cc(-c2ccc(C(=N)N3CCC3)cc2)no1)C(=O)c1ccc(Cl)s1` [Example 40, 5-Chloro-thiophene-2-carboxylic acid {3-[4-(azetidin-1-yl-imino-methyl)-phenyl]-isoxazol-5-ylmethyl}-methyl-amide]: the IC50 is ≥ 500 nM.

Consider `CN1CCN=C1c1ccc(-n2cnc(CNC(=O)c3ccc(Cl)s3)c2)cc1` [Example 365, 5-Chloro-N-((1-(4-(1-methyl-4,5-dihydro-1H-imidazol-2-yl)phenyl)-1H-imidazol-4-yl)methyl)thiophene-2-carboxamide], for which the IC50 is ≤ 100 nM.

`O=C(NCc1cc(-c2ccc(-c3ccccc3CN3CCCC3)cc2)no1)c1ccc(Cl)s1` [Example 210, 5-Chloro-thiophene-2-carboxylic acid [3-(2′-pyrrolidin-1-ylmethyl-biphenyl-4-yl)-isoxazol-5-ylmethyl]-amide] returned an IC50 of 100 to 500 nM.

On to `COc1ccc(C2=NOC(CNC(=O)c3ccc(Cl)s3)C2)cc1` (stereo not drawn) [Example 150, 5-Chloro-thiophene-2-carboxylic acid [3-(4-methoxy-phenyl)-4,5-dihydro-isoxazol-5-ylmethyl]-amide], for which the IC50 is ≥ 500 nM.

Turning to `CC(C)Oc1cc(C(=N)N(C)C)ccc1C1=NOC(CNC(=O)c2ccc(Cl)s2)C1` (stereo not drawn) [Example 109, 5-Chloro-thiophene-2-carboxylic acid {3-[4-(N,N-dimethyl-carbamimidoyl)-2-isopropoxy-phenyl]-4,5-dihydro-isoxazol-5-ylmethyl}-amide], the IC50 is ≤ 100 nM.

As for `C[C@H](NC(=O)c1ccc(Cl)s1)c1cc(-c2ccc(C(=N)N3CCCC3)cc2)no1` [Example 55, (S)-5-Chloro-thiophene-2-carboxylic acid (1-{3-[4-(imino-pyrrolidin-1-yl-methyl)-phenyl]-isoxazol-5-yl}-ethyl)-amide], the IC50 was ≥ 500 nM.

For `Cc1ccn(-c2ccc(C3=NOC(CNC(=O)c4ccc(Cl)s4)C3)cc2)c(=O)c1` (stereo not drawn) [Example 284, 5-Chloro-N-((3-(4-(4-methyl-2-oxopyridin-1(2H)-yl)phenyl)-4,5-dihydroisoxazol-5-yl)methyl)thiophene-2-carboxamide], the IC50 is ≤ 100 nM.

For `O=C(NCC1CC(C2CCN(Cc3ccccc3)CC2)=NO1)c1ccc(Cl)s1` (stereo not drawn) [Example 170, 5-Chloro-thiophene-2-carboxylic acid [3-(1-benzyl-piperidin-4-yl)-4,5-dihydro-isoxazol-5-ylmethyl]-amide], the IC50 was ≥ 500 nM.

Regarding `COc1ccccc1-c1ccc(C2=NOC(CNC(=O)c3ccc(Cl)s3)C2)cc1` (stereo not drawn) [Example 188, 5-Chloro-thiophene-2-carboxylic acid [3-(2′-methoxy-biphenyl-4-yl)-4,5-dihydro-isoxazol-5-ylmethyl]-amide], the IC50 fell in the range of 100 to 500 nM.

Turning to `O=C(NCc1cc(C2CCNCC2)no1)c1ccc(Cl)s1` [Example 176, 5-Chloro-thiophene-2-carboxylic acid (3-piperidin-4-yl-isoxazol-5-ylmethyl)-amide], the IC50 was ≥ 500 nM.

On to `N=C(c1ccc(C2=NOC(CNC(=O)c3ccc(Cl)s3)C2)c(N2CCOCC2)c1)N1CCCCC1` (stereo not drawn) [Example 85, 5-Chloro-thiophene-2-carboxylic acid {3-[4-(imino-piperidin-1-yl-methyl)-2-morpholin-4-yl-phenyl]-4,5-dihydro-isoxazol-5-ylmethyl}-amide], for which the concentration for half-maximal inhibition (IC50) lay within 100 to 500 nM.

For `CN1CCN=C1c1ccc(C2=NOC(CNC(=O)c3ccc(Cl)s3)C2)c(N2CCCCCC2)c1` (stereo not drawn) [Example 91, 5-Chloro-thiophene-2-carboxylic acid {3-[2-azepan-1-yl-4-(1-methyl-4,5-dihydro-1H-imidazol-2-yl)-phenyl]-4,5-dihydro-isoxazol-5-ylmethyl}-amide], the IC50 was ≤ 100 nM.

With `O=C(NCC1CC(c2ccc(Nc3ccnc4c(C(F)(F)F)cccc34)cc2)=NO1)c1ccc(Cl)s1` (stereo not drawn) [Example 393, 5-Chloro-N-((3-(4-(8-(trifluoromethyl)quinolin-4-ylamino)phenyl)-4,5-dihydroisoxazol-5-yl)methyl)thiophene-2-carboxamide], the IC50 was ≥ 500 nM.

For the molecule `CN1CCN(Cc2ccccc2-c2ccc(C3=NOC(CNC(=O)c4ccc(Cl)s4)C3)cc2)CC1` (stereo not drawn) [Example 199, 5-Chloro-thiophene-2-carboxylic acid {3-[2′-(4-methyl-piperazin-1-ylmethyl)-biphenyl-4-yl]-4,5-dihydro-isoxazol-5-ylmethyl}-amide], the IC50 is ≤ 100 nM.

Regarding `CCN(C)C(=N)c1ccc(C2=NOC(CNC(=O)c3ccc(Cl)s3)C2)cc1` (stereo not drawn) [Example 18, 5-Chloro-thiophene-2-carboxylic acid {3-[4-(N-ethyl-N-methyl-carbamimidoyl)-phenyl]-4,5-dihydro-isoxazol-5-ylmethyl}-amide], the IC50 was ≤ 100 nM.

Take `O=C(NCC1CC(c2ccc(Nc3ccc(F)cc3)cc2)=NO1)c1ccc(Cl)s1` (stereo not drawn) [Example 223, 5-Chloro-thiophene-2-carboxylic acid {3-[4-(4-fluoro-phenylamino)-phenyl]-4,5-dihydro-isoxazol-5-ylmethyl}-amide]: the IC50 was ≥ 500 nM.

`CCCN(C)C(=N)c1ccc(C2=NOC(CNC(=O)c3ccc(Cl)s3)C2)cc1` (stereo not drawn) [Example 17, 5-Chloro-thiophene-2-carboxylic acid {3-[4-(N-methyl-N-propyl-carbamimidoyl)-phenyl]-4,5-dihydro-isoxazol-5-ylmethyl}-amide]: the IC50 was ≤ 100 nM.
